Experimental data reported in patent US20070173462A1, “Treatment of diseases associated with the use of antibiotics” (Optimer Pharmaceuticals, Inc., priority 2004, published 2007).
Converted amounts (≈) assume the structure as drawn.

Tests used:
Proteus mirabilis = assay: microbe, parasite or virus in culture; assay type: cell-based; settings: clinical gastrointestinal isolates, n=10
Klebsiella sp. = assay: microbe, parasite or virus in culture; assay type: cell-based; settings: clinical gastrointestinal isolates, n=10
Clostridium difficile = assay: MIC, 207 clinical isolates of C. difficile; assay type: cell-based; settings: clinical isolates, n=207
Description: Compound I was additionally tested against anaerobic clinical isolates and against aerobic bacteria. […] The compound was also active against clinical strains of Staphylococcus sp. and Enterococcus sp.

[1] = test system: Other anaerobic Gram negative rods; assay: organism not typed; assay type: cell-based; settings: clinical gastrointestinal isolates, n=51
C. innocuum = assay: microbe, parasite or virus in culture; assay type: cell-based; settings: clinical isolates, n=9
Enterobacter sp. = assay: microbe, parasite or virus in culture; assay type: cell-based; settings: Enterobacter; clinical gastrointestinal isolates, n=20
C. difficile = assay: microbe, parasite or virus in culture; assay type: cell-based; settings: clinical isolates, n=23
Other Clostridium sp. = assay: microbe, parasite or virus in culture; assay type: cell-based; settings: clinical isolates, n=11
Veillonella sp. = assay: microbe, parasite or virus in culture; assay type: cell-based; settings: Veillonella; clinical gastrointestinal isolates, n=10
Enterococcus sp. = assay: microbe, parasite or virus in culture; assay type: cell-based; settings: clinical gastrointestinal isolates, n=22
toxigenic C. difficile = assay: Hamster model of clindamycin-induced Clostridium difficile associated diarrhea/colitis; assay type: in vivo, Syrian hamsters; settings: oral treatment for 7 days; untreated infection uniformly fatal between days two and six
Description: Animals were treated with two oral doses of clindamycin at 100 mg/kg. Three days after the second dose of clindamycin, they were inoculated with toxigenic C. difficile spores. […] Animals were observed daily for the presence or absence of diarrhea. Necropsies were performed on some animals that died during the experiment, and cecal contents were assayed for C. difficile toxin A. Hamsters were monitored for 20 days, and the cumulative mortality during this period was recorded (FIG. 1).

Pseudomonas aeruginosa = assay: microbe, parasite or virus in culture; assay type: cell-based; settings: clinical gastrointestinal isolates, n=10
C. ramosum = assay: microbe, parasite or virus in culture; assay type: cell-based; settings: clinical isolates, n=10
C. glycolicum = assay: microbe, parasite or virus in culture; assay type: cell-based; settings: clinical isolates, n=9
C. paraputrificum = assay: microbe, parasite or virus in culture; assay type: cell-based; settings: clinical isolates, n=10
Eschericia coli = assay: organism not typed; assay type: cell-based; settings: clinical gastrointestinal isolates, n=10
C. bolteae = assay: microbe, parasite or virus in culture; assay type: cell-based; settings: clinical isolates, n=6
[2] = test system: Bacteroides fragilis group; assay: microbe, parasite or virus in culture; assay type: cell-based; settings: clinical gastrointestinal isolates, n=54
[3] = test system: Anaerobic Gram positive cocci; assay: organism not typed; assay type: cell-based; settings: clinical gastrointestinal isolates, n=49
[4] = test system: Non-spore forming Gram positive rods; assay: organism not typed; assay type: cell-based; settings: clinical gastrointestinal isolates, n=64
C. clostridioforme = assay: organism not typed; assay type: cell-based; settings: clinical isolates, n=5
Stephylococcus sp. = assay: organism not typed; assay type: cell-based; settings: clinical gastrointestinal isolates, n=19
[5] = test system: Streptococcus milleri group; assay: microbe, parasite or virus in culture; assay type: cell-based; settings: clinical gastrointestinal isolates, n=14
C. sordellii = assay: microbe, parasite or virus in culture; assay type: cell-based; settings: clinical isolates, n=5
C. perfringens = assay: microbe, parasite or virus in culture; assay type: cell-based
Streptococcus sp. = assay: microbe, parasite or virus in culture; assay type: cell-based; settings: clinical gastrointestinal isolates, n=9

CN[C@H](CC(C)C)C(=O)N[C@H]1C(=O)N[C@@H](CC(N)=O)C(=O)N[C@H]2C(=O)N[C@H]3C(=O)N[C@H](C(=O)N[C@H](C(=O)O)c4cc(O)cc(O)c4-c4cc3ccc4O)[C@H](O)c3ccc(c(Cl)c3)Oc3cc2cc(c3O[C@@H]2O[C@H](CO)[C@@H](O)[C@H](O)[C@H]2O[C@H]2C[C@](C)(N)[C@H](O)[C@H](C)O2)Oc2ccc(cc2Cl)[C@H]1O [Vancomycin]
MIC50 (Proteus mirabilis; Proteus mirabilis): > 1020 µg/mL
MIC90 (Proteus mirabilis; Proteus mirabilis): > 1020 µg/mL
Range (MIC) (Proteus mirabilis): >1024 µg/mL
MIC50 (Klebsiella sp.; Klebsiella): > 1020 µg/mL
MIC90 (Klebsiella sp.; Klebsiella): > 1020 µg/mL
Range (MIC) (Klebsiella sp.): >1024 µg/mL
MIC90 (Clostridium difficile; Clostridioides difficile): 0.5 µg/mL (≈ 0.345 µM)
MIC50 (Clostridium difficile; Clostridioides difficile, read-out: MIC50): 0.5 µg/mL (≈ 0.345 µM)
Range (MIC) (Clostridium difficile): 0.0156-0.5
MIC50 [1]: 512 µg/mL (≈ 353 µM)
MIC90 [1]: > 1020 µg/mL
MIC50 (C. innocuum; [Clostridium] innocuum): 16 µg/mL (≈ 11 µM)
MIC90 (C. innocuum; [Clostridium] innocuum): 16 µg/mL (≈ 11 µM)
Range (MIC) (C. innocuum): 8 to 16 µg/mL
MIC50 (Enterobacter sp.): > 1020 µg/mL
MIC90 (Enterobacter sp.): > 1020 µg/mL
MIC50 (C. difficile; Clostridioides difficile): 1 µg/mL (≈ 0.69 µM)
MIC90 (C. difficile; Clostridioides difficile): 2 µg/mL (≈ 1.38 µM)
Range (MIC) (C. difficile): 0.5-4^ μg/mL
MIC50 (Other Clostridium sp.; Clostridium): 1 µg/mL (≈ 0.69 µM)
MIC90 (Other Clostridium sp.; Clostridium): 16 µg/mL (≈ 11 µM)
Range (MIC) (Other Clostridium sp.): 1 to 64 µg/mL
MIC50 (Veillonella sp.): 512 µg/mL (≈ 353 µM)
MIC90 (Veillonella sp.): 512 µg/mL (≈ 353 µM)
MIC50 (Enterococcus sp.; Enterococcus): 1 µg/mL (≈ 0.69 µM)
MIC90 (Enterococcus sp.; Enterococcus): 4 µg/mL (≈ 2.76 µM)
Range (MIC) (Enterococcus sp.): 0.5-4 ^ μg/mL
protection from infection (cumulative mortality over 20 days) (toxigenic C. difficile): protected the animals from infection
MIC50 (Pseudomonas aeruginosa): > 1020 µg/mL
MIC90 (Pseudomonas aeruginosa): > 1020 µg/mL
MIC50 (C. ramosum; Thomasclavelia ramosa): 4 µg/mL (≈ 2.76 µM)
MIC90 (C. ramosum; Thomasclavelia ramosa): 8 µg/mL (≈ 5.52 µM)
Range (MIC) (C. ramosum): 4 to 8 µg/mL
MIC50 (C. glycolicum; Terrisporobacter glycolicus): 1 µg/mL (≈ 0.69 µM)
MIC90 (C. glycolicum; Terrisporobacter glycolicus): 1 µg/mL (≈ 0.69 µM)
Range (MIC) (C. glycolicum): 0.5-1^ μg/mL
MIC50 (C. paraputrificum; Clostridium paraputrificum): 2 µg/mL (≈ 1.38 µM)
MIC90 (C. paraputrificum; Clostridium paraputrificum): 2 µg/mL (≈ 1.38 µM)
Range (MIC) (C. paraputrificum): 1 to 2 µg/mL
MIC50 (Eschericia coli): 512 µg/mL (≈ 353 µM)
MIC90 (Eschericia coli): > 1020 µg/mL
MIC50 (C. bolteae; Enterocloster bolteae): 16 µg/mL (≈ 11 µM)
MIC90 (C. bolteae; Enterocloster bolteae): 16 µg/mL (≈ 11 µM)
Range (MIC) (C. bolteae): 1 to 16 µg/mL
MIC50 ([2]; Bacteroides fragilis): 64 µg/mL (≈ 44.2 µM)
MIC90 ([2]; Bacteroides fragilis): 128 µg/mL (≈ 88.3 µM)
Range (MIC) [2]: 16 to 256 µg/mL
MIC50 [3]: 1 µg/mL (≈ 0.69 µM)
MIC90 [3]: 8 µg/mL (≈ 5.52 µM)
MIC50 [4]: 128 µg/mL (≈ 88.3 µM)
MIC90 [4]: > 1020 µg/mL
MIC50 (C. clostridioforme): 1 µg/mL (≈ 0.69 µM)
MIC90 (C. clostridioforme): 8 µg/mL (≈ 5.52 µM)
Range (MIC) (C. clostridioforme): 1 to 8 µg/mL
MIC50 (Stephylococcus sp.): 2 µg/mL (≈ 1.38 µM)
MIC90 (Stephylococcus sp.): 4 µg/mL (≈ 2.76 µM)
Range (MIC) (Stephylococcus sp.): 1 to 4 µg/mL
MIC50 ([5]; Streptococcus milleri): 1 µg/mL (≈ 0.69 µM)
MIC90 ([5]; Streptococcus milleri): 1 µg/mL (≈ 0.69 µM)
Range (MIC) [5]: 1 µg/mL
MIC50 (C. sordellii; Paraclostridium sordellii): 1 µg/mL (≈ 0.69 µM)
MIC90 (C. sordellii; Paraclostridium sordellii): 1 µg/mL (≈ 0.69 µM)
Range (MIC) (C. sordellii): 1 µg/mL
Range (MIC) (C. perfringens): 0.5-1^ μg/mL
MIC50 (C. perfringens; Clostridium perfringens): 1 µg/mL (≈ 0.69 µM)
MIC90 (C. perfringens; Clostridium perfringens): 1 µg/mL (≈ 0.69 µM)
MIC50 (Streptococcus sp.; Streptococcus): 0.5 µg/mL (≈ 0.345 µM)
MIC90 (Streptococcus sp.; Streptococcus): 1 µg/mL (≈ 0.69 µM)
Range (MIC) (Streptococcus sp.): 0.5 to 1 µg/mL
